# ChEMBL document CHEMBL3425467, “Synthesis, cytotoxicity and haemolytic activity of Pulsatilla saponin A, D derivatives” (Bioorg Med Chem Lett, 2015)
# pIC50: −log10 of the molar value.
# Columns and labels:
# SMMC-7721 = test: Cytotoxicity against human SMMC7721 cells assessed as inhibition of cell growth after 24 hrs by MTT assay; format: functional, cell-based; details: SMMC-7721, 24 h
# [1] = Ratio of hemolytic HD50 for PSD to hemolytic HD50 for compound in rabbit RBC; format: ADME, cell-based, Oryctolagus cuniculus; details: erythrocyte
# A549 = test: Cytotoxicity against human A549 cells assessed as inhibition of cell growth after 24 hrs by MTT assay; format: functional, cell-based; details: A549, 24 h
# [2] = Hemolytic activity in rabbit RBC assessed as induction of hemolysis; format: cell-based, Oryctolagus cuniculus, Erythrocyte; details: red blood cells, read-out: HD50 (the source's name)
# [3] = Cytotoxicity against human Bel7402 cells assessed as inhibition of cell growth after 24 hrs by MTT assay; format: functional, cell-based; details: Bel-7402, 24 h
# [4] = Cytotoxicity against human HL7702 cells assessed as inhibition of cell growth after 24 hrs by MTT assay; format: cell-based; details: L02, 24 h
# [5] = Induction of hemolysis in erythrocytes (unknown origin); format: cell-based, Erythrocyte; details: read-out: HD50 (the source's name)
structure (smiles),measurement,setting,value
C[C@@H]1O[C@@H](O[C@H]2[C@H](O[C@H]3CC[C@@]4(C)[C@@H](CC[C@]5(C)[C@@H]4CC=C4[C@@H]6CC(C)(C)CC[C@]6(C(=O)NCC(=O)O)CC[C@]45C)[C@]3(C)CO)OC[C@H](O[C@@H]3O[C@H](CO)[C@@H](O)[C@H](O)[C@H]3O)[C@@H]2O)[C@H](O)[C@H](O)[C@H]1O,pIC50,SMMC-7721,5.80
same,Ratio,[1],20
same,pIC50,A549,5.24
same,HC50,[2],160 µM
same,pIC50,[3],5.37
same,pIC50,[4],5.82
C[C@@H]1O[C@@H](O[C@H]2[C@H](O[C@H]3CC[C@@]4(C)[C@@H](CC[C@]5(C)[C@@H]4CC=C4[C@@H]6CC(C)(C)CC[C@]6(C(=O)N6CCN(CCC(=O)O)CC6)CC[C@]45C)[C@]3(C)CO)OC[C@H](O[C@@H]3O[C@H](CO)[C@@H](O)[C@H](O)[C@H]3O)[C@@H]2O)[C@H](O)[C@H](O)[C@H]1O,pIC50,SMMC-7721,4.84
same,Ratio,[1],20
same,pIC50,A549,5.72
same,HC50,[2],119 µM
same,pIC50,[3],5.01
same,pIC50,[4],5.89
C[C@@H]1O[C@@H](O[C@H]2[C@H](O[C@H]3CC[C@@]4(C)[C@@H](CC[C@]5(C)[C@@H]4CC=C4[C@@H]6CC(C)(C)CC[C@]6(C(=O)N[C@H](CO)C(=O)O)CC[C@]45C)[C@]3(C)CO)OC[C@H](O[C@@H]3O[C@H](CO)[C@@H](O)[C@H](O)[C@H]3O)[C@@H]2O)[C@H](O)[C@H](O)[C@H]1O,pIC50,SMMC-7721,< 4.00
same,Ratio,[1],20
same,pIC50,A549,4.14
same,HC50,[2],60.3 µM
same,pIC50,[3],4.03
same,pIC50,[4],< 4.00
C[C@@H]1O[C@@H](O[C@H]2[C@H](O[C@H]3CC[C@@]4(C)[C@@H](CC[C@]5(C)[C@@H]4CC=C4[C@@H]6CC(C)(C)CC[C@]6(C(=O)O)CC[C@]45C)[C@]3(C)CO)OC[C@H](O)[C@@H]2O)[C@H](O)[C@H](O)[C@H]1O [ALPHA-HEDERIN],pIC50,SMMC-7721,4.97
same,HC50,[5],10 µM
same,pIC50,A549,4.82
same,HC50,[2],7.5 µM
same,pIC50,[3],4.88
same,pIC50,[4],4.94
C[C@@H]1O[C@@H](O[C@H]2[C@H](O[C@H]3CC[C@@]4(C)[C@@H](CC[C@]5(C)[C@@H]4CC=C4[C@@H]6CC(C)(C)CC[C@]6(C(=O)O)CC[C@]45C)[C@]3(C)CO)OC[C@H](O[C@@H]3O[C@H](CO)[C@@H](O)[C@H](O)[C@H]3O)[C@@H]2O)[C@H](O)[C@H](O)[C@H]1O [HEDERACOLCHISIDE A],pIC50,SMMC-7721,5.12
same,HC50,[5],22 µM
same,pIC50,A549,5.20
same,HC50,[2],6.3 µM
same,pIC50,[3],5.05
same,pIC50,[4],4.90
